In patent publication US20100041691A1, “PHARMACEUTICAL COMPOSITIONS COMPRISING COMBINATIONS OF AN AMPA/KAINATE ANTAGONISTIC COMPOUND AND AN INHIBITOR OF A MULTIDRUG RESISTANCE PROTEIN” (NeuroSearch A/S, priority 2006, published 2010):
Like-named read-outs stand apart in the source and are kept apart here.

Columns and labels:
[1] = 10 mg/kg i.v. with Verapamil I.C.V. versus Compound A only; mice; 5-60 minutes
Procedure: 16 NMRI-mice were allocated into 4 groups. The animals were anesthetised in 1.5% Isuflurane and 20% O2. […] At different time point (5 minutes, 15 minutes, 30 minutes and 60 minutes) after dosing the animals were killed by decapitation and blood and brain were collected. The EDTA stabilised blood was centrifugation at 4000 rpm for 20 minutes at 4° C. Plasma and brain samples were stored at −20° C. pending analysis.
Plasma and brain samples were analysed using LC-MS/MS (Quattro Ultimo Platinum with Acquility solvent and sample manager, Waters) in positive electrospray 10 ionisation and multiple reaction monitoring mode. The analytical column was a UPLC Acquility BEH C18 (1.7 μm) 1.0×50 mm (Waters) with gradient elution at a 0.13 ml/min flow rate. The initial mobile phase was 20% methanol/80% formic acid changed to 90% methanol/10% formic acid over a time period of 1.7 min.
Samples were centrifuged for 25 minutes at 5° C., 14000 rpm and 3 μl of the supernatants were injected onto the LC-column.
Brain tissue (0.1 g) was weighed out on top of a tube containing 0.8 ml bead (1.0 mm Zirconia from BioSpec Products). […]
Samples were quantified based on standard curves (linear, 1/×weighting), prepared in plasma and brain tissue respectively.

[2] = system: tonic seizures induced by 26 mA corneal stimulation; conditions: Compound A i.v. 60 minutes before electroshock, female NMRI mice
Text: After administration of vehicle or test substance female NMRI mice were stimulated with 26 mA for 0.3 seconds, using corneal stimulation (Rodent Shocker, Hugo Sachs Electronic, Germany). In presence of tonic seizure the mice was labeled 0% protection and if no tonic seizure was detected the mice was labeled 100% protection. Results were plotted as a function of logarithmic dose and fitted to a sigmoid-dose response (with variable slope (GraphPad Prism, ver. 4) and used to estimate the dose that would give a 50% protection from seizures (N=6/group).
Vehicle (5% chremophor) was dosed p.o.

P-gp = conditions: inhibition of P-gp in phenytoin-treated chronic epileptic rats; cited from earlier work

CN1CCc2c(-c3ccc(S(=O)(=O)N(C)C)cc3)cc3c(c2C1)NC(=O)C3=NOC(CCO)C(=O)O (stereo not shown) [Compound A, 8-Methyl-5-(4-(N,N-dimethyl-sulfamoyl)phenyl)-6,7,8,9-tetrahydro-1H-pyrrolo[3,2h]-isoqinoline-2,3-dione-3-O-(4-hydroxybutyric acid-2-yl)oxime]
brain exposure of Compound A [1]: increase in brain exposure
ED50, protection against tonic seizures ([2]; pretreatment with Tariquidar 24 mg/kg p.o. 120 minutes before): 24 mg/kg
ED50, protection against tonic seizures ([2]; with vehicle (5% chremophor p.o.)): 31.5 mg/kg

COc1cc2c(cc1OC)CN(CCc1ccc(NC(=O)c3cc(OC)c(OC)cc3NC(=O)c3cnc4ccccc4c3)cc1)CC2 [Tariquidar]
seizure control (P-gp): improves seizure control
